The nature of data set [1]: CAC determination by pyrene excitation method. In kind it is physicochemical. Here is the method: (§1) L-Mito-FFYp consists of a tripeptide backbone Phe–Phe–Tyrp (Tyrp stands for tyrosine phosphate) in which pyrene butyric acid is capped on the N-terminus to promote the self-assembly and TPP is conjugated to the amine group of the lysine side chain for targeting the mitochondria (Fig. S1, ESI ^†). The CAC of L-Mito-FFYp was determined to be 12 μM via pyrene excitation method (Fig. 1A). […] The EIMT of L-Mito-FFYp was investigated by treating it with ALP enzyme. After 24 h incubation (37 °C), fibers having a diameter of ca. 10 nm were observed via transmission electron microscopy (TEM) analysis (Fig. 1D). Specifically, micelles with a diameter of 53 nm were converted into fibers with a diameter of 12.9 nm, most likely by the action of the ALP enzyme. To confirm that the fiber structure corresponded to L-Mito-FFY, L-Mito-FFY was separately synthesized and purified (Fig. S2A and B, ESI ^†). It was supposed after the phosphate group cleaved from the ALP enzyme. The L-tyrosine phosphate was replaced with L-tyrosine. Its self-assembled morphology was analyzed via TEM. Similar fibers with a diameter of 10 nm were observed (Fig. S3, ESI ^†), confirming that ALP transforms the L-Mito-FFYp micelles into L-Mito-FFY fibers.
Fig. 1 (A) CAC determination of L-Mito-FFYp using pyrene excitation method. […]

Data set [2] is described as follows: TEM analysis of self-assembled morphology, with and without ALP enzyme. It is filed as physicochemical. The conditions noted are these: 15 μM, before ALP treatment. Here is the method: as §1, with “Similar fibers with a diameter of 10 nm were observed (Fig. S3, ESI ^†), confirming that ALP transforms the L-Mito-FFYp micelles into L-Mito-FFY fibers.” left out
(§2) Imaging of apoptosis/necrosis-dependent cell death. […] The cells were then washed gently, the medium was replaced with DMEM medium, and the cells were analyzed using an LSM780 laser confocal scanning microscope. […]

Data set [3] is described as follows: Cell viability in the presence of ALP inhibitor NBT-BCIP. It is filed as cell-based. The settings on record: co-treatment with NBT-BCIP solution. As to the method:
(§3) To confirm that the cytotoxicity of L-Mito-FFYp stems from its selectivity toward ALP and the consequent morphology transformation, the cytotoxicity was evaluated toward Saos-2, HeLa, SK-BR-3, and NIH-3T3 cell lines. SK-BR-3 and NIH-3T3 cell lines are known to express fewer ALP enzymes. […] And the cytotoxicity of L-Mito-FFYp in the Saos-2 cell line was analyzed in the presence and absence of endocytosis inhibitors such as chlorpromazine (clathrin), sucrose (macropinocytosis), and M-β-cyclodextrin (caveolin). […] To further verify the important role of the phosphate moiety, we synthesized L-Mito-FFY compound (Fig. S2, ESI ^†). […] After phosphoric acid was cleaved by the ALP enzyme overexpressed in the Saos-2 cell membrane, Mito-FFY was accumulated in the mitochondria. As a result, apoptosis occurred due to mitochondrial membrane disruption induced by self-assembled fibers inside the mitochondria.
Figure S14. Cell viability analysis of Mito-FFYp in the presence of ALP inhibitor, NBT-BCIP.
(1 picture or pasted object on this page, not shown here)

Data set [4] in a line: Surface charge (zeta potential) analysis. In kind it is physicochemical. The conditions noted are these: 15 μM solution (over the CAC value).
The subject of data set [5] is HeLa cells. Briefly: Cell viability, MTT assay. In kind it is cell-based. The settings on record: 48 h incubation, read-out: Concentration at which 50% viability was observed. Here is the method: as §3
(§4) Fig. 3 (A) Cell viability analysis of L-Mito-FFYp in Saos-2, HeLa, SK-BR-3 and NIH 3T3 cell lines for an incubation time of 48 h. (B) Cell viability analysis of L-Mito-FFYp in the presence of different endocytosis inhibitos. […] (E) Western blotting analysis showing the release of cytochrome C after treatment with L-Mito-FFYp. […]

In data set [6] the test system is NIH-3T3 cell line. Briefly: Cell viability, MTT assay. The settings on record: NIH 3T3, 10 μM, 48 h incubation. In kind it is cell-based. As to the method:
as §3, §4
(Tetrazolium assays rely on reduction of a dye to a coloured formazan, in cell work by metabolically active cells.)

Data set [7] relates to cytochrome C. Briefly: Western blotting of cytochrome C release. In kind it is cell-based. The conditions noted are these: western blotting after treatment. As to the method: as §3
Fig. 3 (A) Cell viability analysis of L-Mito-FFYp in Saos-2, HeLa, SK-BR-3 and NIH 3T3 cell lines for an incubation time of 48 h. (B) Cell viability analysis of L-Mito-FFYp in the presence of different endocytosis inhibitos. […] (E) Western blotting analysis showing the release of cytochrome C after treatment with L-Mito-FFYp. […] They are left out because Control is not a substance, and the digits are not readable with certainty

For data set [8], the system named is Saos-2 cell line. In kind it is cell-based. As to the method:
as §3
(§5) Fig. 3 (A) Cell viability analysis of L-Mito-FFYp in Saos-2, HeLa, SK-BR-3 and NIH 3T3 cell lines for an incubation time of 48 h. (B) Cell viability analysis of L-Mito-FFYp in the presence of different endocytosis inhibitos. […] (E) Western blotting analysis showing the release of cytochrome C after treatment with L-Mito-FFYp. TEXT PRINTED IN THE PICTURE: (D) Mito-FFYp: Q1 0.91; Q2 26.4; Q3 8.97; Q4 63.7 DOUBTS OF THE COPYIST ABOUT THIS PICTURE: Mito-FFYp, panel D, Q1: very small blurred print, 0.91 uncertain (could be 0.51 or 0.61) / Mito-FFYp, panel D, Q2: very small blurred print, 26.4 uncertain (6 could be 5 or 8) / Mito-FFYp, panel D, Q3: very small blurred print, 8.97 uncertain (could be 6.97 or 8.57) / Mito-FFYp, panel D, Q4: very small blurred print, 63.7 uncertain (could be 65.7 or 83.7) / Panel D, Control plot also prints quadrant numbers (about Q1 0.090, Q2 0.24, Q3 0.078, Q4 99.6). […]
(§6) M. T. Jeena,‡a Seongeon Jin,‡ a Batakrishna Jana,a and Ja-Hyoung Ryu,*a Materials. All peptides were synthesized manually on a […] scale. The products were purified by high-performance liquid chromatography (HPLC, Agilent Technologies, USA) with a C-18 reverse column in ACN/water mixture. […]

Data set [9] deals with SK-BR-3 cell line. It is filed as cell-based. The conditions noted are these: 48 h, 10 μM. Here is the method:
as §3, §5, §6

Data set [10] relates to Saos-2 cell line. In words: Cellular ROS by dihydroethidium (DHE) staining, confocal microscopy and flow cytometry. It is filed as cell-based. The conditions noted are these: Saos-2, DHE staining, 20 μM. A general note: A flow cytometer gives signals particle by particle.
The subject of data set [11] is Saos-2 cells. Briefly: FITC-annexin V/PI assay (confocal imaging and FACS) for mechanism of cell death. In kind it is cell-based. The conditions noted are these: FITC-annexin V/PI staining. Here is the method: as §3
Fig. 3 (A) Cell viability analysis of L-Mito-FFYp in Saos-2, HeLa, SK-BR-3 and NIH 3T3 cell lines for an incubation time of 48 h. […] They are left out because Control is not a substance, and the digits are not readable with certainty […]
as §2

Molecules are shown by their SMILES. Read-outs that look alike come from different tables or passages of the source.

`NC(=O)[C@H](CCCCNCCCCCC[P+](c1ccccc1)(c1ccccc1)c1ccccc1)NC(=O)[C@H](Cc1ccc(OP(=O)(O)O)cc1)NC(=O)[C@H](Cc1ccccc1)NC(=O)[C@H](Cc1ccccc1)NC(=O)CCCc1ccc2ccc3cccc4ccc1c2c34` [L-Mito-FFYp]: the “Critical Aggregation Concentration (CAC)” value in [1] stood at 12 µM. In addition, the Micelle diameter in data set [2] came out at 53 nm. Also, the “Toxicity in the presence of ALP inhibitor” value in data set [3] is listed as “remarkably reduced”. In addition, the “Surface charge (zeta potential)” value in data set [4] is −25.6 ± 0.32 mV. Further, the IC50 in [5] is ~5 µM; in data set [8] (Saos-2, 48 h incubation, MTT, read-out: Concentration at which 50% viability was observed), ~5 µM; in [8] (human) it was ~10 µM. Moreover, the Cell viability in [6] and in data set [9] was ~90% each time. Also, the “Cytochrome C release from the mitochondria” value in data set [7] was “released”. For the same compound, the “Cellular ROS” value in data set [10] is reported as “overproduction of ROS”. Besides, the “Mechanism of cell death” value in data set [11] was “late apoptosis”.

The values above are taken from publication PMC9709777, “Enzyme-instructed morphology transformation of mitochondria-targeting peptide for the selective eradication of osteosarcoma” (RSC Chemical Biology, 2022).
